Source: PMC11855827, “High-Throughput Screening of Five Compound Libraries for Anthelmintic Activity and Toxicity Leads to the Discovery of Two Flavonoid Compounds” (International Journal of Molecular Sciences, 2025)
Like-named read-outs stand apart in the source and are kept apart here. Where a SMILES comes first, the peptide text is derived from it.

Test system: C. elegans
[1] = Table S2, C. elegans SS assay, 110 μM, 0 h, averages of 4 data points
[2] = Table S2, C. elegans SS assay, 110 μM, 24 h, averages of 4 data points

Molecule	Percentage of motility inhibition 0 h [1]	Percentage of motility inhibition 24 h [2]	also measured
CC(C)=CCC[C@@](C)(O)[C@H]1CC[C@]2(C)[C@@H]1[C@H](O)C[C@@H]1[C@@]3(C)CC[C@H](O[C@@H]4O[C@H](CO)[C@@H](O)[C@H](O)[C@H]4O[C@@H]4O[C@H](CO)[C@@H](O)[C@H](O)[C@H]4O[C@@H]4OC[C@@H](O)[C@H](O)[C@H]4O)C(C)(C)[C@@H]3CC[C@]12C [Notoginsenoside Ft1]	14%	3%	
C=C1C(=O)O[C@@H]2/C=C(\C)[C@@H](OC(C)=O)C/C=C(\COC(C)=O)C[C@@H](OC(=O)/C(C)=C/CO)[C@@H]12 [Eupalinolide A]			Percentage of motility inhibition 0 h (110 µM): 11%; Percentage of motility inhibition 24 h (110 µM): 38%
COc1ccc(-c2oc3c(CC=C(C)C)c(O[C@@H]4O[C@H](CO)[C@@H](O)[C@H](O)[C@H]4O)cc(O)c3c(=O)c2O)cc1 [Icariside I]	0%	23%	
Clc1ccc(CCC(Cn2ccnc2)Sc2c(Cl)cccc2Cl)cc1.O=[N+]([O-])O (centres unmarked) [Butoconazole (nitrate)]	45%	46%	
Miquelianin	1%	0%	
O=c1cc(-c2ccccc2)oc2cc(O)cc(O[C@@H]3O[C@H](CO)[C@@H](O)[C@H](O)[C@H]3O)c12 [Toringin]	0%	2%	
O=c1cc(-c2ccc(O)cc2)oc2c([C@@H]3O[C@H](CO)[C@@H](O)[C@H](O)[C@H]3O)c(O)c([C@@H]3O[C@H](CO)[C@@H](O)[C@H](O)[C@H]3O)c(O)c12 [Vicenin 2]	0%	3%	
CC1(C)CC[C@]2(C(=O)O)[C@H](O)C[C@]3(C)C(=CC[C@@H]4[C@@]5(C)C[C@H](O)[C@H](O[C@@H]6O[C@H](CO)[C@@H](O)[C@H](O)[C@H]6O)C(CO)(CO)[C@@H]5CC[C@]43C)[C@@H]2C1 [3-O-Beta-D-Glucopyranosylplatycodigenin]	0%	0%	
COc1c(C(C)C)cc2c(c1O)C1(C(=O)O)CCCC(C)(C)C1CC2 (centres unmarked) [12-O-Methylcarnosic acid]	5%	11%	
Cl.O[C@H]1[C@H]2c3cc4c(cc3CN3CCC(=C[C@@H]1O)[C@H]23)OCO4 [Lycorine (hydrochloride)]	15%	0%	
C=C[C@H]1[C@H](O[C@@H]2O[C@H](CO)[C@@H](O)[C@H](O)[C@H]2OC(=O)c2c(O)cc(O)cc2-c2cccc(O)c2)OC=C2C(=O)OCC[C@]21O [Amaroswerin]	0%	0%	
Bavachinin	0%	2%	
C[C@@H]1CC[C@]2(C(=O)O[C@@H]3O[C@H](CO)[C@@H](O)[C@H](O)[C@H]3O)CC[C@]3(C)C(=CC[C@@H]4[C@@]5(C)C[C@@H](O)[C@H](O)C(C)(C)[C@@H]5CC[C@]43C)[C@@H]2[C@]1(C)O [Rosamultin]	21%	1%	
C[C@@H]1O[C@@H](OC[C@H]2O[C@@H](Oc3c(-c4ccc(O)c(O)c4)oc4cc(O)cc(O)c4c3=O)[C@H](O)[C@@H](O)[C@@H]2O)[C@H](O)[C@H](O)[C@H]1O [Ruti n]	33%	10%	
CN1CC(=O)NC1=O [N‐Methylhydantoin]	13%	16%	
C=C1C(=O)O[C@@H]2/C=C(\C)[C@@H](OC(C)=O)C/C=C(\COC(C)=O)C[C@@H](OC(=O)/C(C)=C/CO)[C@@H]12 [Eupalinolide B]			Percentage of motility inhibition 0 h (110 µM): 0%; Percentage of motility inhibition 24 h (110 µM): 0%
COc1ccc2c3ccnc4ccc(=O)n(c2c1)c43 [9‐Methoxycanthin‐6‐one]	0%	22%	
COc1cc(OC)c2c(=O)c(OC)c(-c3ccc(OC)c(OC)c3)oc2c1 [3,5,7,3′,4′‐Pentamethoxyflavone]	2%	24%	
CC(=O)c1cc2c(CO)cc(O)cc2oc1=O [Armillarisin A]	0%	4%	
C=C(CCC(C(=O)O)[C@H]1[C@H](O)C[C@@]2(C)C3=CC[C@H]4C(C)(C)[C@@H](OC(C)=O)CC[C@]4(C)C3=CC[C@]12C)C(C)C (some centres unmarked) [Dehydropachymic acid]	29%	35%	
NCCCC[C@H](NC(=O)[C@H](Cc1c[nH]c2ccccc12)NC(=O)[C@@H](N)CCCCN)C(=O)O [H‐Lys‐Trp‐Lys‐OH] (H-Lys-Trp-Lys-OH)			Percentage of motility inhibition 0 h (0 h, 110 μM): 55%; Percentage of motility inhibition 24 h (24 h, 110 µM): 10%
CC(=O)O[C@@]12CO[C@@H]1C[C@H](O)[C@@]1(C)C(=O)[C@H](O)C3=C(C)[C@@H](OC(=O)[C@H](O)[C@@H](NC(=O)c4ccccc4)c4ccccc4)C[C@@](O)([C@@H](OC(=O)c4ccccc4)[C@H]21)C3(C)C [10-Deacetyltaxol]	17%	0%	

Molecule	Percentage of motility inhibition 0 h [1]	Percentage of motility inhibition 24 h [2]	also measured
O=S(=O)([O-])O.c1c2c(cc3c1OCO3)-c1cc3ccc4c(c3c[n+]1CC2)OCO4 [Coptisine (Sulfate)]	0%	9%	
CC(=O)OC1CCC2(C)C(CCC3(C)C2CC=C2C4CC(C)(C)CCC4(C)CCC23C)C1(C)C(=O)O (stereo not drawn) [3-O-Acetyl-α-boswellic acid]	20%	14%	
CC1=C[C@H]2[C@@H](CC1)[C@H](C)CC[C@H]2[C@@H](C)C(=O)O [Dihydroartemisinic acid]	0%	15%	
CC1=C(C(=O)O)N2C(=O)[C@@H](NC(=O)[C@H](N)c3ccccc3)[C@H]2SC1.O [Cephalexin (monohydrate)]	8%	0%	
O=c1cc(-c2ccc(O)cc2)oc2c(C3O[C@H](CO)[C@@H](O[C@@H]4O[C@H](CO)[C@@H](O)[C@H](O)[C@H]4O)[C@H](O)[C@H]3O)c(O)cc(O)c12 (some centres unmarked) [4”‐O‐Glucosylvitexin]	0%	0%	
COc1cc2c(cc1O)CC[n+]1cc3c(OC)c(OC)ccc3cc1-2.[OH-] [Jatrorrhizine (hydroxide)]	8%	5%	
COc1cc2c(cc1O)CCN1Cc3c(ccc(OC)c3OC)CC21 (centres unmarked) [Corypalmine]	17%	16%	
O=C(O)[C@@H]1C[C@@H](O)CN1	11%	0%	
C/C=C1\C[C@@H](C)[C@](O)(CO)C(=O)OCC2=CCN3CC[C@@H](OC1=O)[C@@H]23 [Usaramine]	31%	21%	
Cc1c(C)c2c(c(C)c1O)CC[C@@](C)(CCC[C@H](C)CCC[C@H](C)CCCC(C)C)O2 [α-Vitamin E]	53%	11%	
O=c1c(O)c(-c2ccc(O)cc2)oc2cc(O)ccc12 [3,7,4'‐Trihydroxyflavone]	0%	16%	
CC1=C2C[C@H]3[C@@H](CC(=O)[C@H]4C[C@@H](O)CC[C@@]43C)[C@@H]2CC[C@]12O[C@@H]1C[C@H](C)CN[C@H]1[C@H]2C [Peimisine]	0%	0%	
C[C@@H]1O[C@@H](O[C@H]2[C@H](Oc3c(-c4ccc(O)cc4)oc4cc(O)cc(O)c4c3=O)O[C@H](CO)[C@@H](O)[C@@H]2O)[C@H](O)[C@H](O)[C@H]1O [Kaempferol‐3‐O‐glucorhamnoside]	5%	2%	
C[C@H](CCC(=O)O)[C@H]1CC(=O)[C@@]2(C)C3=C(C(=O)C[C@]12C)[C@@]1(C)CCC(=O)C(C)(C)[C@@H]1C[C@@H]3O [Lucideric acid A]	0%	20%	
CC1(C)CC[C@]2(C(=O)O)CC[C@]3(C)C(=CC[C@@H]4[C@@]5(C)CC[C@H](O[C@@H]6O[C@H](C(=O)O)[C@@H](O)[C@H](O)[C@H]6O)C(C)(C)[C@@H]5CC[C@]43C)[C@@H]2C1 [Calenduloside E]	0%	0%	
CC(C)(O)[C@@H]1CC[C@](C)([C@H]2[C@@H](O)C[C@@]3(C)[C@@H]4C[C@H](O)[C@H]5C(C)(C)[C@@H](O)CC[C@]5(C)C4=CC[C@]23C)O1 [Astragenol]	50%	50%	
O=C([O-])CCC(=O)[O-].[Na+].[Na+] [Disodium succinate]	19%	1%	
CC(C)C1=CC(=O)C(C)(C2C(O)CC3(C)C4CC=C5C(CCC(OC6OC(CO)C(O)C(O)C6OC6OC(C)C(O)C(O)C6O)C5(C)C)C4(C)C(=O)CC23C)O1 (centres unmarked) [Picfeltarraenin IB]	0%	34%	
CC(C)C1=CC(=O)[C@@](C)([C@H]2[C@H](O)C[C@@]3(C)[C@@H]4CC=C5[C@@H](CC[C@@H](O[C@@H]6OC[C@@H](O)[C@H](O)[C@H]6O[C@@H]6O[C@@H](C)[C@H](O)[C@@H](O)[C@H]6O)C5(C)C)[C@]4(C)C(=O)C[C@]23C)O1 [Picfeltarraenin IA]	5%	2%	
CC(C)(O)[C@@H]1CC[C@](C)([C@H]2[C@@H](O)C[C@@]3(C)[C@@H]4C[C@H](O[C@@H]5O[C@H](CO)[C@@H](O)[C@H](O)[C@H]5O)[C@H]5C(C)(C)[C@@H](O[C@@H]6OC[C@@H](O)[C@H](O)[C@H]6O)CC[C@@]56C[C@@]46CC[C@]23C)O1 [Astragaloside IV]	10%	0%	
(‐)‐Sparteine	0%	4%	
